Data: patent publication US20230100838A1 (Revolution Medicines, Inc., priority 2019, published 2023)

What was measured:
[1] = molecular target: T1, GDP-loaded K-Ras (1-169) C51S, C80L, C118S (Homo sapiens, UniProt P01116, C118S/C51S/C80L); experiment: K-Ras WT (GDP) cross-linking assay (conjugate formation, TOF mass spectrometry); format: binding; parameters: key: 0: No observed x-linking; +: 0 < x ≤ 20; ++: 20 < x ≤ 40; +++: 40 < x ≤ 100; conditions: Table 5; percent covalently modified K-Ras by MS; room temperature; typical compound conc. 2, 10, 25 μM, endpoints 1 and 24 h
T1 construct: GDP-loaded K-Ras (1-169) C51S, C80L, C118S
Protocol: (§1) Protocol: K-Ras G12D(GDP) Cross-Linking Assay
(§2) Note: while the following protocol outlines the procedure for K-Ras G12D(GDP), a person of skill in the art may substitute other Ras proteins, and may also substitute a non-hydrolyzable GTP analog for GDP to study GTP bound Ras protein.
(§3) GDP-loaded K-Ras (1-169) G12D, C51S, C80L, C118S and GDP-loaded K-Ras (1-169) C51S, C80L, C118S were adjusted to 50 μM in K-Ras assay buffer (12.5 mM HEPES, 75 mM NaCl and 1 mM MgCl2 at pH 7.4). A 5 μL aliquot of each protein solution was added to each well of a 96-well microplate containing 40 μL of assay buffer. Initial compound stocks were prepared in DMSO at 100 times their final assay concentration. Compounds were then diluted 10-fold into K-Ras assay buffer to 10 times their final concentration. A 5 μL aliquot of each diluted compound solution was added to each protein solution in the 96-well microplate to initiate the reaction, which then proceeded at room temperature. Typical final compound concentrations were 2, 10, and 25 μM. At each time point, the reactions were analyzed immediately or quenched with 5 μL of a 5% formic acid solution and kept at 4° C. until analysis. Typical assay endpoints were 1 and 24 h.
(§4) Data collection took place on an Agilent 6230 TOF Mass Spectrometer. Complete reactions were injected onto a C4 reverse-phase column to separate protein from buffer components prior to entering the mass spectrometer. The proteins were eluted from the column by increasing acetonitrile fraction in the mobile phase and fed directly into the mass analyzer. Initial analysis of raw data took place in Agilent MassHunter BioConfirm software and consisted of deconvolution of multiple protein charge states with the maximum entropy algorithm, with a mass step of 1 Da. The heights of all deconvoluted protein masses were exported for further data analysis. The percent modification of each protein was then determined by calculating the peak height of the covalently modified K-Ras species as a percentage of the sum total of K-Ras protein peak height.

[2] = molecular target: T2, GDP-loaded K-Ras (1-169) G12D, C51S, C80L, C118S (Homo sapiens, UniProt P01116, C118S/C51S/C80L/G12D); experiment: K-Ras G12D(GDP) cross-linking assay (conjugate formation, TOF mass spectrometry); format: binding; parameters: key: 0: No observed x-linking; +: 0 < x ≤ 20; ++: 20 < x ≤ 40; +++: 40 < x ≤ 100; conditions: Table 5; percent covalently modified K-Ras by MS; room temperature; typical compound conc. 2, 10, 25 μM, endpoints 1 and 24 h
T2 construct: GDP-loaded K-Ras (1-169) G12D, C51S, C80L, C118S
Protocol: as §1, §2, §3, §4

| Compound | WT x-linking (%) [1] | G12D x-linking (%) [2] |
| --- | --- | --- |
| Cc1cccc2cccc(N3CCc4c(nc(OC[C@@H]5CCCN5C)nc4N4CCN(C(=O)[C@@H]5CN5Cc5ccccc5)[C@@H](CC#N)C4)C3)c12 (stereo partly drawn) [Example 97, 2-((S)-1-((S)-1-benzylaziridine-2-carbonyl)-4-(7-(8-methylnaphthalen-1-yl)-2-(((S)-1-methylpyrrolidin-2-yl)methoxy)-5,6,7,8-tetrahydropyrido[3,4-d]pyrimidin-4-yl)piperazin-2-yl)acetonitrile] | + (0 < x ≤ 20) | + (0 < x ≤ 20) |
| Cc1ccnc(C(C)C)c1-n1c(=O)nc(N2[C@H](C)CN(C(=O)[C@@H]3CN3)C[C@@H]2C)c2cc(F)c(-c3c(O)cccc3F)nc21 [Example 140] | 0 | 0 |
| CN1CCC[C@H]1COc1nc2c(c(N3CCN(C(=O)[C@H]4CN4)[C@@H](CC#N)C3)n1)CCN(c1cccc3cccc(Cl)c13)C2 [Example 112, 2-((S)-1-((R)-aziridine-2-carbonyl)-4-(7-(8-chloronaphthalen-1-yl)-2-(((S)-1-methylpyrrolidin-2-yl)methoxy)-5,6,7,8-tetrahydropyrido[3,4-d]pyrimidin-4-yl)piperazin-2-yl)acetonitrile] | 0 | ++ (20 < x ≤ 40) |
| COC(=O)[C@H]1CN1C(=O)N1CCN(c2nc(OC[C@@H]3CCCN3C)nc3c2CCN(c2cccc4cccc(C)c24)C3)C[C@@H]1CC#N [Example 108, methyl (R)-1-((S)-2-(cyanomethyl)-4-(7-(8-methylnaphthalen-1-yl)-2-(((S)-1-methylpyrrolidin-2-yl)methoxy)-5,6,7,8-tetrahydropyrido[3,4-d]pyrimidin-4-yl)piperazine-1-carbonyl)aziridine-2-carboxylate] | + (0 < x ≤ 20) | + (0 < x ≤ 20) |
| Cc1ccnc(C(C)C)c1-n1c(=O)nc(N2[C@H](C)CN(C(=O)[C@H]3CN3)C[C@H]2C)c2cc(F)c(-c3c(O)cccc3F)nc21 [Example 137] | 0 | 0 |
| CC(=O)N1C[C@@H]1CN1CCN(c2nc(OC[C@@H]3CCCN3C)nc3c2CCN(c2cccc4cccc(C)c24)C3)C[C@@H]1CC#N [Example 119, 2-((S)-1-(((S)-1-acetylaziridin-2-yl)methyl)-4-(7-(8-methylnaphthalen-1-yl)-2-(((S)-1-methylpyrrolidin-2-yl)methoxy)-5,6,7,8-tetrahydropyrido[3,4-d]pyrimidin-4-yl)piperazin-2-yl)acetonitrile] | + (0 < x ≤ 20) | + (0 < x ≤ 20) |
| COCCN1C[C@H]1C(=O)N1CCN(c2nc(OC[C@@H]3CCCN3C)nc3c2CCN(c2cccc4cccc(C)c24)C3)C[C@@H]1CC#N (stereo partly drawn) [Example 106, 2-((S)-1-((S)-1-(2-methoxyethyl)aziridine-2-carbonyl)-4-(7-(8-methylnaphthalen-1-yl)-2-(((S)-1-methylpyrrolidin-2-yl)methoxy)-5,6,7,8-tetrahydropyrido[3,4-d]pyrimidin-4-yl)piperazin-2-yl)acetonitrile] | + (0 < x ≤ 20) | + (0 < x ≤ 20) |
| Cc1cccc2cccc(N3CCc4c(nc(OC[C@@H]5CCCN5C)nc4N4CC[C@H](NC(=O)C5CN5)C4)C3)c12 (some centres unmarked) [Example 130] | 0 | + (0 < x ≤ 20) |
| COCC1(N=C=N[C@@H]2CCN(c3nc(OC[C@@H]4CCCN4C)nc4c3CCN(c3cccc5cccc(C)c35)C4)C[C@@H]2CC#N)CC1 [Example 153] | + (0 < x ≤ 20) | ++ (20 < x ≤ 40) |
| Cc1cccc2cccc(N3CCc4c(nc(OC[C@@H]5CCCN5C)nc4N4CCN(C(=O)[C@@H]5CN5S(C)(=O)=O)[C@@H](CC#N)C4)C3)c12 (some centres unmarked) [Example 132] | + (0 < x ≤ 20) | + (0 < x ≤ 20) |
| CO[C@H]1CCCC[C@@H]1N=C=NC1CCN(c2nc(OC[C@@H]3CCCN3C)nc3c2CCN(c2cccc4cccc(C)c24)C3)CC1 [Example 145] | + (0 < x ≤ 20) | + (0 < x ≤ 20) |
| O=C([C@@H]1CN1)N1CCN2c3ncnc4cc(-c5c(O)cccc5F)c(Cl)c(c34)OCC[C@@H]2C1 [Example 134] | + (0 < x ≤ 20) | + (0 < x ≤ 20) |
| Cc1ccnc(C(C)C)c1-n1c(=O)nc(N2[C@H](C)CN(C(=O)[C@@H]3CN3)C[C@H]2C)c2cc(F)c(-c3c(O)cccc3F)nc21 [Example 142] | + (0 < x ≤ 20) | + (0 < x ≤ 20) |
| Cc1ccc2[nH]ncc2c1-c1cc2ncnc3c2c(c1Cl)OCC[C@@H]1CN(C(=O)[C@@H]2CN2)CCN31 [Example 123] | 0 | 0 |
| Cc1ccnc(C(C)C)c1-n1c(=O)nc(N2C[C@H](C)N(C(=O)[C@H]3CN3)C[C@H]2C)c2cc(F)c(-c3c(O)cccc3F)nc21 [Example 139] | 0 | 0 |
| CO[C@@H]1CCCC[C@@H]1N=C=NC1CCN(c2nc(OC[C@@H]3CCCN3C)nc3c2CCN(c2cccc4cccc(C)c24)C3)CC1 [Example 146] | + (0 < x ≤ 20) | + (0 < x ≤ 20) |
| CC(=O)N1C[C@@H]1C(=O)N1CCN(c2nc(OC[C@@H]3CCCN3C)nc3c2CCN(c2cccc4cccc(C)c24)C3)C[C@@H]1CC#N [Example 98, 2-((S)-1-((R)-1-acetylaziridine-2-carbonyl)-4-(7-(8-methylnaphthalen-1-yl)-2-(((S)-1-methylpyrrolidin-2-yl)methoxy)-5,6,7,8-tetrahydropyrido[3,4-d]pyrimidin-4-yl)piperazin-2-yl)acetonitrile] | 0 | + (0 < x ≤ 20) |
| Cc1cccc2cccc(N3CCc4c(nc(OC[C@@H]5CCCN5C)nc4N4CC[C@@H](NC(=O)C5CN5)C4)C3)c12 (some centres unmarked) [Example 129] | 0 | + (0 < x ≤ 20) |
| Cc1cccc2cccc(N3CCc4c(nc(OC[C@@H]5CCCN5C)nc4N4CCN(C[C@@H]5CN5)[C@@H](CC#N)C4)C3)c12 [Example 101, 2-((S)-1-(((S)-aziridin-2-yl)methyl)-4-(7-(8-methylnaphthalen-1-yl)-2-(((S)-1-methylpyrrolidin-2-yl)methoxy)-5,6,7,8-tetrahydropyrido[3,4-d]pyrimidin-4-yl)piperazin-2-yl)acetonitrile] | + (0 < x ≤ 20) | + (0 < x ≤ 20) |
| CN1CCC[C@H]1COc1nc2c(c(N3CCN(C(=O)[C@@H]4CN4)[C@@H](CC#N)C3)n1)CCN(c1cc(O)cc3ccccc13)C2 [Example 115] | 0 | + (0 < x ≤ 20) |
| Cc1cccc2cccc(N3CCc4c(nc(OC[C@@H]5CCCN5C)nc4N4CCN(C(=O)[C@H]5CN5Cc5ccccc5)[C@@H](CC#N)C4)C3)c12 (stereo partly drawn) [Example 96, 2-((S)-1-((R)-1-benzylaziridine-2-carbonyl)-4-(7-(8-methylnaphthalen-1-yl)-2-(((S)-1-methylpyrrolidin-2-yl)methoxy)-5,6,7,8-tetrahydropyrido[3,4-d]pyrimidin-4-yl)piperazin-2-yl)acetonitrile] | + (0 < x ≤ 20) | + (0 < x ≤ 20) |
| CO[C@H]1CCCC[C@H]1N=C=NC1CCN(c2nc(OC[C@@H]3CCCN3C)nc3c2CCN(c2cccc4cccc(C)c24)C3)CC1 [Example 148] | + (0 < x ≤ 20) | + (0 < x ≤ 20) |
| Cc1cccc2cccc(N3CCc4c(nc(OC[C@@H]5CCCN5C)nc4N4CC[C@H](NC(=O)[C@@H]5CN5)[C@@H](CC#N)C4)C3)c12 [Example 127] | + (0 < x ≤ 20) | + (0 < x ≤ 20) |
| COCCN=C=N[C@H]1CCN(c2nc(OC[C@@H]3CCCN3C)nc3c2CCN(c2cccc4cccc(C)c24)C3)C[C@@H]1CC#N [Example 76, 2-((3S,4S)-4-((((2-methoxyethyl)imino)methylene)amino)-1-(7-(8-methylnaphthalen-1-yl)-2-(((S)-1-methylpyrrolidin-2-yl)methoxy)-5,6,7,8-tetrahydropyrido[3,4-d]pyrimidin-4-yl)piperidin-3-yl)acetonitrile] | ++ (20 < x ≤ 100) | +++ (40 < x ≤ 100) |
| Cc1cccc2cccc(N3CCc4c(nc(OC[C@@H]5CCCN5C)nc4N4CC[C@H](NC(=O)[C@H]5CN5)[C@@H](CC#N)C4)C3)c12 [Example 126] | + (0 < x ≤ 20) | + (0 < x ≤ 20) |
